Data taken from patent publication US9867861B2, “Process for the large scale production of fruit cells and treatment of diseases with such cells” (priority 2012, dated 2018).

Tests used:
[1] = Solubility assay of resveratrol sources in water; assay type: physicochemical; settings: acidified water (pH=2) as well as pH 7.0
[2] = tested on: carrageenan induced rat paw edema; settings: resveratrol 50 mg/kg body weight before carrageenan; Gentilli et al (2001); cited from earlier work
[3] = tested on: carrageenan-induced hind paw inflammation (hyperalgesia); experiment: Hot plate method, inflammatory nociception in freely moving rats after carrageenan; assay type: in vivo, rat; settings: indomethacin 2 mg/kg, vs vehicle control
Description: The study assessed the efficacy of the RGC by two methods: • 1. Paw volume measurements • 2. Inflammatory nociception in freely moving rats Materials and Methods: Red Grape Cells (RGC) prepared according to example 1. • RGC was administered orally at dose of 400 mg/kg body weight (2 ml/40 mg) as a suspension in sterile drinking water, 2 h before carrageenan injection. • RGC Composition: […] Rats were divided into three groups of eight rats in each group. The rats in all groups were injected with 1% carrageenan (0.1 mg/paw) or sterile saline (0.9% NaCl) into the sub plantar tissue of left hind paw of each rat. • The Following Tests were Performed: • Paw Volumes Measurements • Carrageenan injected paw volumes were measured hourly just before carrageenan injection 0 and 1, 2, 4 hours after injection using caliper. • The paw dimensions were measured in two axes and paw volume was calculated. Paw edema volume in this model was an indication of the inflammation severity. • For each time point, the change in paw volume was calculated either by subtracting the baseline paw volume or as % of baseline paw volume. Hot Plate Method for Measuring Inflammatory Nociception in Freely Moving Rats The hot plate method was used to determine inflammatory nociception in freely moving rates. […]

[4] = tested on: carrageenan induced rat paw edema; experiment: Carrageenan induced rat paw edema, paw volume measurements; assay type: in vivo; settings: indomethacin 2 mg/kg 2 h before carrageenan; vs vehicle control
Text: The aim of the present study was to evaluate the in vivo anti-inflammatory activity of RGC (Red Grape Cells) made according to the large scale process of the invention in an acute inflammation model in rats so as to verify the efficiency of the cells produced according to the invention. One of the experimental model most widely used to study acute inflammation in rodents is that based on the intraplantar administration of carrageenan. The study assessed the efficacy of the RGC by two methods: • 1. Paw volume measurements • 2. […] The rats in all groups were injected with 1% carrageenan (0.1 mg/paw) or sterile saline (0.9% NaCl) into the sub plantar tissue of left hind paw of each rat. • The Following Tests were Performed: • Paw Volumes Measurements • Carrageenan injected paw volumes were measured hourly just before carrageenan injection 0 and 1, 2, 4 hours after injection using caliper. • The paw dimensions were measured in two axes and paw volume was calculated. Paw edema volume in this model was an indication of the inflammation severity. • For each time point, the change in paw volume was calculated either by subtracting the baseline paw volume or as % of baseline paw volume. […]

| SMILES | Dissolution of RES in water, percentage compared to dissolution in 80% methanol [1] [%] | Paw edema [2] | Hot plate latency, % from baseline [3] | Hot plate latency delta, baseline-actual time ([3]; 2 and 4 h) | Paw edema (volume %) [4] |
| --- | --- | --- | --- | --- | --- |
| Oc1ccc(/C=C/c2cc(O)cc(O)c2)cc1 [Synthetic-RES, trans-3,5,4′-trihydroxystilbene] | 7 | failed to reduce paw edema |  |  |  |
| COc1ccc2c(c1)c(CC(=O)O)c(C)n2C(=O)c1ccc(Cl)cc1 [indomethacin] |  |  | statistically significant difference at 2 and 4 h | significant decrease in the latency delta | statistically significant difference at 2 and 4 h |
